Data reported in patent publication US20090325959A1 (priority 2008, published 2009).
Like-named read-outs stand apart in the source and are kept apart here.

What was measured:
[1] = target: T1, ROCK1 (Homo sapiens, UniProt Q13464); test: Rho kinase inhibition assay (IMAP fluorescence polarization), ROCK1; format: biochemical;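 also: kinase reaction run 60 min at room temperature, then phosphorylated substrate captured on IMAP beads for 30 min, with fluorescence polarization read in mP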
T1 construct: purchased Upstate/Chemicon 14-601
Procedure: (§1) Following the pre-incubation, 10 μM ATP was added to initiate the reaction. After 60 minutes at room temperature, Molecular Devices IMAP™ binding solution was added to bind phosphorylated substrate. After 30 minutes of incubation in the presence of the IMAP™ beads, the fluorescence polarization was read and the ratio was reported as mP. IC50 values for compounds and EC50 values for ATP were calculated using the Prism software from Graphpad.

[2] = target: T2, ROCK2 (Homo sapiens, UniProt O75116); test: Rho kinase inhibition assay (IMAP fluorescence polarization), ROCK2; format: biochemical;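 also: kinase reaction started with 10 µM ATP and run 60 min at room temperature, then phosphorylated substrate captured on IMAP beads for 30 min and fluorescence polarization read in mP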
T2 construct: purchased Upstate/Chemicon 14-451
Procedure: as §1

[3] = system: human neutrophils; test: Human neutrophil chemotaxis induced by fMLP (modified Boyden chamber); format: cell-based
Outline: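 Neutrophils from healthy volunteers' blood, isolated by Ficoll-paque centrifugation, dextran sedimentation and hypotonic red-cell lysis. Migration measured in a modified Boyden chamber (3 μm polycarbonate membrane) toward 1 μM fMLP for 1 h at 37° C., 5% CO2. Compounds tested in dose response.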

[4] = system: murine eosinophils; test: Murine eosinophil chemotaxis induced by eotaxin; format: cell-based, mouse; conditions: 10 nM eotaxin challenge; FIG. 1
Procedure: Bronchoalveolar lavage was collected from ovalbumin sensitized and challenged mice in a volume of 2.5 mL lavage buffer. The lavage buffer was 0.9% saline with 10% fetal bovine serum. The pooled lavages were maintained on ice until use. The murine eosinophils were isolated using MACS cell separation (Miltenyi Biotech) by depletion of B cells and T cells by positive selection following incubation with antibody conjugated magnetic beads specific for CD45-R (B220) and CD90 (Thy 1.2), which bind B cells and T cells, respectively.
Eosinophil chemotaxis was assessed using a modified Boyden Chamber (Neuroprobe, 96-well) with a 5 μm pore membrane. The ability of the tested compounds to block chemotaxis induced by a 10 nM eotaxin challenge (mouse) or 1 nM eotaxin challenge (human) during one hour incubation at 37° C. with 5% CO2 was assessed. Chemotaxis was quantified via microscopy by counting the number of migrated cells in at least 3 view fields per treatment.

[5] = system: human eosinophils; test: Human eosinophil chemotaxis induced by eotaxin; format: cell-based; conditions: 1 nM eotaxin challenge; FIG. 2
Description: Peripheral blood from healthy human volunteers was collected and the PMNs separated via Ficoll-paque density centrifugation followed by hypotonic lysis of the red blood cells. Subsequently, the human eosinophils were isolated from the cell suspension via StemCell Technologies Human Eosinophil Enrichment kit (Cat. No 19256) according to the manufacturer's recommendations. Briefly, unwanted cells were specifically labeled with dextran-coated magnetic nanoparticles using bispecific Tetrameric Antibody Complexes (TAC) directed against cell surface antigens on human blood cells: […] The unwanted cells are then separated from the unlabelled eosinophils using the EasySep® magnetic isolation procedure.

[6] = system: ova-sensitized, ova-challenged mice; test: Mouse ovalbumin sensitization model, in vivo anti-inflammatory activity (BALF eosinophils and cytokines)
Procedure: Male BALB/c mice were ordered from Charles River Laboratories (Raleigh, N.C.). The animals were approximately 19 to 21 grams at time of receipt. Upon arrival, the animals were randomized into groups of five males per cage and assigned to a dosing group. Animals were quarantined for 7 days under test conditions. They were observed daily for general health status and ability to adapt to the water bottles. Animals were sensitized on day 0 and 14 of study by an intraperitoneal injection with 20 μg of ovalbumin (ova) and 2.0 mg aluminum hydroxide (alum) which initiates the development of a specific T-helper (Th) cells type 2 resulting in asthmatic animals (denoted as Ova in the figures). One group of animals received an injection of saline to use as control animals (denoted as normal in the figures). […] Aerosol challenge consists of using an Aerogen Aeroneb nebulizer and controller with a particle size of 4-6 μm mass median aerodynamic diameter (MMAD) with a distribution of 400 μl per minute. This aerosol challenge is necessary to target the Th2-driven allergic inflammation in the lower airways.
The anti-inflammatory dosing paradigm (FIG. 3) was utilized to evaluate the anti-inflammatory effects of experimental compounds. […] On day 32 of the experiment, after measurement of airway hyperreactivity, BALF was collected and all animals were anesthetized, bled and euthanized.
Bronchoalveolar lavage fluid (BALF) was collected by infusing 3.0 ml of saline with 10% fetal calf serum into the lungs via the trachea and then withdrawing the fluid. The total amount of cells/ml of BALF fluid was determined via manual cell count on hemocytometer. The BALF was centrifuged, supernatant removed and analyzed for cytokine concentrations as described below, and cell pellet reconstituted in 500 μL of fluid. Cytospin slides were prepared from the cell pellet using 100 μL of fluid and spinning samples for 5 minutes at 5000 rpms in a cytospin centrifuge. Following Hema3 stain, relative percentages of individual leukocytes were determined on a 200 cell count for each sample. The final concentration of individual leukocyte cell types per ml of BALF was determined by multiplication of the relative percentage of individual leukocytes with the total amount of cells/ml of BALF fluid.
The concentrations of cytokines in the BALF samples were determined using commercially available Bio-plex kits (Bio-Rad) for the detection of mouse IL-5, IL-13, and Eotaxin. The analysis of cytokine levels was measured using the Bio-Plex 200 (Bio-Rad) system according to the manufacturer's instructions.

[7] = system: ova-sensitized, ova-challenged mice; test: Prevention of airway hyperreactivity (Penh, methacholine) in mouse ovalbumin sensitization model; format: in vivo
[8] = system: A-10 rat thoracic aorta cells; test: PDGF-stimulated smooth muscle cell proliferation assay (BrdU incorporation); format: cell-based; conditions: A-10 cells, 10 ng/mL PDGF, BrdU incorporation, percent of total challenge-stimulated proliferation;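 also: cells kept in serum-free medium, BrdU allowed to incorporate for 24 h, then incorporated label detected fluorometrically with an anti-BrdU antibody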
Procedure: Effects on cell proliferation were measured using a bromodeoxyuridine (BrdU) incorporation assay. […] Serum free media containing 01% BSA was added to the cells. 24 hours later the media was removed and replaced with warmed serum free media. […] Proliferation was then monitored using the BrdU Cell Proliferation Assay, HTS (Calbiochem cat. #t HTS01). BrdU was allowed to incorporate into cells for 24 hours prior to the addition of fixative/denaturing solution and the fluorometric detection of incorporated BrdU using a BrdU antibody as per manufacturer's directions. Data are reported as a percent of the PDGF-stimulated BrdU incorporation.

[9] = target: T3, Akt3 human enzyme (Homo sapiens, UniProt Q9Y243); test: Akt3 inhibition assay (IMAP FP); format: biochemical;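 also: kinase reaction run 60 min at room temperature after 30 µM ATP start, phosphorylated substrate captured on IMAP beads and read as fluorescence polarization (mP)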
T3 construct: purchased Upstate Chemicon 14-502
Procedure: Inhibition of Akt3 and p70S6K activity was determined using the IMAP™ FP Progressive Binding Kit (Molecular Devices product number R8127). […] Following the pre-incubation, 30 μM ATP was added to initiate the reaction. After 60 minutes at RT, Molecular Devices IMAP™ binding solution was added to bind phosphorylated substrate. After 30 minutes of incubation in the presence of the IMAP™ beads the fluorescence polarization was read and the ratio was reported as mP. IC50 results were calculated using the Prism software from Graphpad. The Ki values were determined according to the following formula: Ki=IC50/(1+([ATP Challenge]/EC50 ATP)).

[10] = target: T4, p70S6K human enzyme (Homo sapiens, UniProt P23443, T412E); test: p70S6K inhibition assay (IMAP FP); format: biochemical;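 also: kinase reaction run at room temperature, phosphorylated substrate captured on IMAP beads and read as fluorescence polarization in mP, IC50 then converted to Ki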
T4 construct: purchased Upstate Chemicon 14-486

[11] = Rat oral pharmacokinetics (plasma); format: in vivo; conditions: 20-30 μmol/kg
[12] = Compound concentrations in lungs of ova-sensitized, ova-challenged mice post IP, PO and IT administration; format: in vivo; conditions: male, Balb/c, mouse, lung, PO 15 μmol/kg, n = 9 or 10, read-out: Lung concentration (plasma corrected)
Procedure: Additionally, compound concentrations were determined in the plasma and lungs of male, ovalbumin-sensitized, Balb/c mice from a murine model of asthma. Test compounds were formulated in water or 1% polysorbate 80 and dosed at 15 μmol/kg for intraperitoneal (IP) or oral (PO) administration or formulated for intratracheal (IT) administration and dosed at 5 μmol/kg, which directly targets the lungs. Following completion of the in vivo study, mice were euthanized and blood and plasma collected approximately 2.5-3 hours post administration of test compound for bronchodialator (BD) studies and 24 hours post administration for anti-inflamatory (AI) studies. Lungs were homogenized in Matrix A lysing tubes using a FastPrep 24 tissue and cell homogenizer (MP Biomedicals, Solon, Ohio). Both plasma samples and lung extracts were assayed for compound concentrations using an on-line, solid phase extraction LC/MS/MS system. The actual lung tissue concentrations of each compound in mouse were extrapolated from the lung and plasma concentrations, data are shown in Table 11. The results of a set of experiments using unsensitized mice and collecting only plasma 15 minutes post administration of test compounds are shown in Table 12.

[13] = Compound plasma concentrations in unsensitized mice at 15 min post administration; format: in vivo; conditions: mouse, 15 μmol/kg; mean compound plasma concentration in mice at 15 minutes post oral administration; read-out: Mouse Oral PK

T3 sequence (Q9Y243 whole entry): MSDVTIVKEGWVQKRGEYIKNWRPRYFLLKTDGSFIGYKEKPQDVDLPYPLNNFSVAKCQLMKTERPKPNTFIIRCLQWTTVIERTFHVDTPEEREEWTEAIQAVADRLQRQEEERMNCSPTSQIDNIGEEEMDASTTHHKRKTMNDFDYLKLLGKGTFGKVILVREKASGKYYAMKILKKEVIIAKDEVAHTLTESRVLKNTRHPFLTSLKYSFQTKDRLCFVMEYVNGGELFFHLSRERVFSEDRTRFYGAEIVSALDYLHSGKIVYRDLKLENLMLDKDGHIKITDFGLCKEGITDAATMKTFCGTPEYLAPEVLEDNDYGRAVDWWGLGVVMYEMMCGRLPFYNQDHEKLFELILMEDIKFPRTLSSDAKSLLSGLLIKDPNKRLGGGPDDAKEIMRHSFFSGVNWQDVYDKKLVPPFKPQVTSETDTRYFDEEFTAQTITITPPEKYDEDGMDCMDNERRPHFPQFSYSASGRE
T2 sequence (O75116 11-552 limits assumed): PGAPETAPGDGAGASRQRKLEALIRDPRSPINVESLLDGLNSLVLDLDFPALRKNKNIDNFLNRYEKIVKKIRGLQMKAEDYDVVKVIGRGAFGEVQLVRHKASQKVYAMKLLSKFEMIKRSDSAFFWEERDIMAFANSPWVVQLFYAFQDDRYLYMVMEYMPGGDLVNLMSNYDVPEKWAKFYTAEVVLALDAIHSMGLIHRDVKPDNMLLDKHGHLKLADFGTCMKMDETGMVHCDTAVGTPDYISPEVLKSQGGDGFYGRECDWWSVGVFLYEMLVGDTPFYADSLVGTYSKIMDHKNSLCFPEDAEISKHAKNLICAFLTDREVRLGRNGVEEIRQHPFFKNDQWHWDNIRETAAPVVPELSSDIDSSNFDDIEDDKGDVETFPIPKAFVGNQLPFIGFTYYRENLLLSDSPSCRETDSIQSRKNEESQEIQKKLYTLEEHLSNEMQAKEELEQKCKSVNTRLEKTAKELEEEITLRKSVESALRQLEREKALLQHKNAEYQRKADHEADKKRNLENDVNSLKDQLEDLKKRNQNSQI
T4 sequence (P23443 1-421 T412E limits assumed): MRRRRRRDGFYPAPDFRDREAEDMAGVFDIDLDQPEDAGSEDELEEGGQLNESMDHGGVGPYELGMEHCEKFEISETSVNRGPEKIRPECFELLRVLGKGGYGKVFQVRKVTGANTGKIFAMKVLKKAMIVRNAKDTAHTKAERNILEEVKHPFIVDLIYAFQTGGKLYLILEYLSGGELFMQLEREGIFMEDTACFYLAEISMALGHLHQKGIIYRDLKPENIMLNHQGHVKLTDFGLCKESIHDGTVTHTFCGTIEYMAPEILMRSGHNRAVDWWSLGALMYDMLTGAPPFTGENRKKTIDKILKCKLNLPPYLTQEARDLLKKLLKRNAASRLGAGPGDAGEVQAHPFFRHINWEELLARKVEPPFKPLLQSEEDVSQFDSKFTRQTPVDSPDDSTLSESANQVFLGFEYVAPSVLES
T1 sequence (Q13464 17-535 limits assumed): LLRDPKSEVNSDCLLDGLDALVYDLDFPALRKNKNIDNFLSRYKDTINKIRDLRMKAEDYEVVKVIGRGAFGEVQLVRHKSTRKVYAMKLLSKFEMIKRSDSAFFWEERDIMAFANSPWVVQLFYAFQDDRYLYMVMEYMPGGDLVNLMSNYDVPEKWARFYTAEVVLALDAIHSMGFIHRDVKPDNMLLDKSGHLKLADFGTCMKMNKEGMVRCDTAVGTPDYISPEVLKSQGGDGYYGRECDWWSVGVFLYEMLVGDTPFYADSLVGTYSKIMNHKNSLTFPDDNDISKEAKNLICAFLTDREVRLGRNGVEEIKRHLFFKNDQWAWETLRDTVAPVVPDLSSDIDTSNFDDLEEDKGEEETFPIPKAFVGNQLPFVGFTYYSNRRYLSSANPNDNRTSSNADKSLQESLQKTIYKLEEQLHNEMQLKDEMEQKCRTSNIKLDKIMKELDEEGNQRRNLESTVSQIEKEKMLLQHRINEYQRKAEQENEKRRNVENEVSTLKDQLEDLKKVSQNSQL

CS(=O)(=O)Nc1cccc(CN2CC[C@@H](Nc3cccc4cnccc34)C2)c1 [Compound 2.038, (R)-N-(3-((3-(isoquinolin-5-ylamino)pyrrolidin-1-yl)methyl)phenyl)methanesulfonamide] showed a Ki ([1]; Avg, 10 μM ATP) of 28.9 nM, a Ki ([1]; average Ki) of 28.9 nM and a Ki ([2]; 10 μM ATP, read-out: ROCK2 Ki, Avg) of 6.3 nM. It also gave a Ki ([2]; average Ki, read-out: ROCK2 Ki) of 6.3 nM, an IC50 ([3]; Neutrophil, 1 h, 1 μM fMLP challenge, one hour, read-out: Chemotaxis Avg. IC50) of 734 nM and an IC50 ([3]; average IC50 for inhibition of fMLP-induced neutrophil chemotaxis, read-out: Chemotaxis IC50) of 700 nM. For the same compound, the “eotaxin-induced chemotactic response of murine eosinophils” value [4] was “inhibited”, the “eotaxin-induced chemotactic response of human eosinophils” value [5] was “inhibited” and the “concentration of IL-5 in BALF” value ([6]; 15 μmol/kg/oral on days 27 to 31, FIG. 6) was “reduced levels”. For the same compound, the “concentration of Eotaxin in BALF” value ([6]; 15 μmol/kg/oral on days 27 to 31, FIG. 7) was “reduced levels”, the “concentration of IL-13 in BALF” value ([6]; 15 μmol/kg/oral on days 27 to 31, FIG. 8) was “reduced levels” and the “Airway eosinophil infiltration (eosinophils per ml of BALF)” value ([6]; dosed orally to day 31, anti-inflammatory dosing paradigm, FIG. 4) was “reduced”. The “log10AUC (Penh)” value ([7]; 15 μmol/kg/oral, days 27 to 31) was 1.8981, the “airway hyperreactivity to methacholine dosed on Day 32” value ([7]; oral 15 μMol/kg once a day during days 27 to 31) was “prevention of airway hyperreactivity” and the “Percent of PDGF Induced Proliferation at 1 μM Avg” value ([8]; 1 μM test compound) was 58.6%. For the same compound, the “Percent of PDGF Induced Proliferation at 10 μM Avg” value ([8]; 10 μM test compound) was 62.7%, the Ki ([9]; 30 μM ATP, Ki=IC50/(1+([ATP Challenge]/EC50 ATP)), read-out: Akt3 Ki, Avg) was 2550 nM and the Ki ([9]; average Ki, read-out: Akt3 Ki) was 2550 nM. For the same compound, the Ki ([10]; 30 μM ATP, Ki=IC50/(1+([ATP Challenge]/EC50 ATP)), read-out: p70S6K Ki, Avg) was 1400 nM, the Ki ([10]; average Ki, read-out: p70S6K Ki) was 1400 nM and the Vz_F ([11]; mean n = 3) was 22.5 L/kg. The AUC(0-t) ([11]; male, CD Sprague Dawley, mean n = 3) was 1.28 µM·h, the Cmax ([11]; male, CD Sprague Dawley, mean n = 3, read-out: Cmax) was 1040 nM and the Tmax ([11]; male, CD Sprague Dawley, mean n = 3, read-out: Tmax) was 30 min. For the same compound, the half-life ([11]; male, CD Sprague Dawley, mean n = 3, read-out: t½ (converted)) was 42.6 min, the concentration at 24 h ([12]; AI model, time point 24 h) was 11 nM and the concentration at 3 h ([12]; BD model, time point 3 h) was 440 nM. It also gave a concentration at 15 min [13] of 729 nM.
